{"source": "paper PMC6321168", "about": "“Comparative Study on Excretive Characterization of Main Components in Herb Pair Notoginseng-Safflower and Single Herbs by LC–MS/MS” (Pharmaceutics, 2018)", "test": "Fecal excretion study in rats after oral NS, SF or CNS (LC–MS/MS)", "assay_type": "in vivo", "conditions": "rat feces", "procedure": "The animal room was set at constant temperature of 20 ± 2 °C with humidity of 50 ± 20% and 12/12 h light/dark cycle.\nEighteen male rats were fasted for 12 h before starting the experiment. The rats were divided into three groups at random (n = 6) and received NS (60 mg/kg), SF (50 mg/kg), and NS (60 mg/kg) + SF (50 mg/kg), respectively, by oral gavage. The rats were placed in separate metabolic cages. The urine samples were collected at 0–2, 2–4, 4–6, 6–8, 8–12, 12–24, 24–36, 36–48, 48–72, 72–96, and 96–120 h. The feces samples were collected at 0–4, 4–8, 8–12, 12–24, 24–36, 36–48, 48–72, 72–96, and 96–120 h. The urine volume was recorded and the dry feces were measured for each collection period. Samples were stored at −80 °C until analysis.\nFeces samples were homogenized in ultrapure water (1 g/15 mL), soaked for 30 min, ultrasonically extracted for 30 min and centrifuged at 9000 rpm for 8 min. An aliquot of 200 μL feces water extraction solution was mixed with 10 μL of IS and then extracted three times with water-saturated n-BuOH (150 μL). The upper organic phase was combined and evaporated to dryness using a ZLS-2 vacuum centrifugal concentrator. The residue was treated as the urine sample and a 1-μL aliquot was injected for LC–MS analysis.\nUltra fast liquid chromatography (UFLC) analysis was performed using a Shimadzu UFLC system (DGU-20A3R Degasser; LC-20AD pump; SIL-20AXR Autosampler; CTO-20AC Column Oven) (Nakagyo-Ku, Koyoto, Japan). […] Because of the different endogenous substances in the urine and feces samples, different elution gradients were used to alleviate the matrix effects for the analytes.\nThe mass spectrometric detection was performed on an ABSciex 4500 Qtrap mass spectrometer (ABSciex, Foster City, CA, USA) equipped with a negative electrospray ionization (ESI) interface using multiple reaction monitoring (MRM). The MS parameters were optimized under the selected ion monitoring conditions as follows: curtain gas, 35 psi; ionspray voltage, 4500 V; turbo gas temperature, 450 °C; GS1, 45 psi; GS2, 45 psi. All data were acquired and analyzed by Analyst software (Versions 1.6.2) from ABSciex.\nThe accumulative excretion percentage was calculated for each analyte as follows. Excretion at time (t) = [concentration of the analyte (ng/mL) at t] × total urine (or feces) volume (mL) at t. The cumulative excretion up to time t (mg) was expressed as a percent (%) cumulative excretion by dividing by the total amount of the analyte ingested (mg): % Cumulative Excretion = 100 × (Σt excretiont) total ingested.", "data": [{"smiles": "CC(C)=CCC[C@](C)(O[C@@H]1O[C@H](CO)[C@@H](O)[C@H](O)[C@H]1O)[C@H]1CC[C@]2(C)[C@@H]1[C@H](O)C[C@@H]1[C@@]3(C)CC[C@H](O)C(C)(C)[C@@H]3[C@@H](O[C@@H]3O[C@H](CO)[C@@H](O)[C@H](O)[C@H]3O)C[C@]12C", "note": "[ginsenoside Rg1]", "values": [{"measurement": "concentration at 4 h", "setting": "male, Sprague Dawley, oral CNS 110 mg/kg, 4 h", "value": "1100 ± 1520", "unit": "ng/mL"}, {"measurement": "concentration at 8 h", "setting": "male, Sprague Dawley, oral CNS 110 mg/kg, 8 h", "value": "1710 ± 54", "unit": "ng/mL"}, {"measurement": "concentration at 12 h", "setting": "male, Sprague Dawley, oral CNS 110 mg/kg, 12 h", "value": "1110 ± 221", "unit": "ng/mL"}, {"measurement": "concentration at 24 h", "setting": "male, Sprague Dawley, oral CNS 110 mg/kg, 24 h", "value": "980 ± 138", "unit": "ng/mL"}, {"measurement": "concentration at 36 h", "setting": "male, Sprague Dawley, oral CNS 110 mg/kg, 36 h", "value": "959 ± 40", "unit": "ng/mL"}, {"measurement": "concentration at 48 h", "setting": "male, Sprague Dawley, oral CNS 110 mg/kg, 48 h", "value": "943 ± 49", "unit": "ng/mL"}, {"measurement": "concentration at 72 h", "setting": "male, Sprague Dawley, oral CNS 110 mg/kg, 72 h", "value": "324 ± 249", "unit": "ng/mL"}, {"measurement": "concentration at 96 h", "setting": "male, Sprague Dawley, oral CNS 110 mg/kg, 96 h", "value": "24 ± 24", "unit": "ng/mL"}, {"measurement": "concentration at 4 h", "setting": "male, Sprague Dawley, oral NS 60 mg/kg, 4 h", "value": "1510 ± 256", "unit": "ng/mL"}, {"measurement": "concentration at 8 h", "setting": "male, Sprague Dawley, oral NS 60 mg/kg, 8 h", "value": "473 ± 16", "unit": "ng/mL"}, {"measurement": "concentration at 12 h", "setting": "male, Sprague Dawley, oral NS 60 mg/kg, 12 h", "value": "1090 ± 88", "unit": "ng/mL"}, {"measurement": "concentration at 24 h", "setting": "male, Sprague Dawley, oral NS 60 mg/kg, 24 h", "value": "2040 ± 55", "unit": "ng/mL"}, {"measurement": "concentration at 36 h", "setting": "male, Sprague Dawley, oral NS 60 mg/kg, 36 h", "value": "2020 ± 54", "unit": "ng/mL"}, {"measurement": "concentration at 48 h", "setting": "male, Sprague Dawley, oral NS 60 mg/kg, 48 h", "value": "2080 ± 47", "unit": "ng/mL"}, {"measurement": "concentration at 72 h", "setting": "male, Sprague Dawley, oral NS 60 mg/kg, 72 h", "value": "116 ± 8", "unit": "ng/mL"}, {"measurement": "concentration at 96 h", "setting": "male, Sprague Dawley, oral NS 60 mg/kg, 96 h", "value": "23 ± 1", "unit": "ng/mL"}, {"measurement": "concentration at 120 h", "setting": "male, Sprague Dawley, oral NS 60 mg/kg, 120 h", "value": "22 ± 2", "unit": "ng/mL"}, {"measurement": "Accumulative excretion amount", "setting": "oral CNS 110 mg/kg, 4 h", "value": "14.286 ± 20.907", "unit": "µg"}, {"measurement": "Accumulative excretion percentage", "setting": "oral CNS 110 mg/kg, 4 h", "value": "0.474±0.681", "unit": "%"}, {"measurement": "Excretion amount", "setting": "oral CNS 110 mg/kg, 4 h", "value": "14.286 ± 20.907", "unit": "µg"}, {"measurement": "Accumulative excretion amount", "setting": "oral CNS 110 mg/kg, 8 h", "value": "39.952 ± 21.244", "unit": "µg"}, {"measurement": "Accumulative excretion percentage", "setting": "oral CNS 110 mg/kg, 8 h", "value": "1.303±0.695", "unit": "%"}, {"measurement": "Accumulative excretion amount", "setting": "oral CNS 110 mg/kg, 12 h", "value": "56.860 ± 20.559", "unit": "µg"}, {"measurement": "Excretion amount", "setting": "oral CNS 110 mg/kg, 12 h", "value": "16.908 ± 6.636", "unit": "µg"}, {"measurement": "Accumulative excretion amount", "setting": "oral CNS 110 mg/kg, 24 h", "value": "71.363 ± 24.096", "unit": "µg"}, {"measurement": "Accumulative excretion percentage", "setting": "oral CNS 110 mg/kg, 24 h", "value": "2.331±0.796", "unit": "%"}, {"measurement": "Excretion amount", "setting": "oral CNS 110 mg/kg, 24 h", "value": "14.504 ± 4.143", "unit": "µg"}, {"measurement": "Accumulative excretion amount", "setting": "oral CNS 110 mg/kg, 36 h", "value": "85.729 ± 27.211", "unit": "µg"}, {"measurement": "Accumulative excretion percentage", "setting": "oral CNS 110 mg/kg, 36 h", "value": "2.802±0.894", "unit": "%"}, {"measurement": "Excretion amount", "setting": "oral CNS 110 mg/kg, 36 h", "value": "14.365 ± 4.335", "unit": "µg"}, {"measurement": "Accumulative excretion amount", "setting": "oral CNS 110 mg/kg, 48 h", "value": "99.901 ± 30.374", "unit": "µg"}, {"measurement": "Accumulative excretion percentage", "setting": "oral CNS 110 mg/kg, 48 h", "value": "3.265±0.994", "unit": "%"}, {"measurement": "Excretion amount", "setting": "oral CNS 110 mg/kg, 48 h", "value": "14.173 ± 4.533", "unit": "µg"}, {"measurement": "Accumulative excretion amount", "setting": "oral CNS 110 mg/kg, 72 h", "value": "105.113 ± 30.466", "unit": "µg"}, {"measurement": "Accumulative excretion percentage", "setting": "oral CNS 110 mg/kg, 72 h", "value": "3.431±0.996", "unit": "%"}, {"measurement": "Excretion amount", "setting": "oral CNS 110 mg/kg, 72 h", "value": "5.212 ± 4.367", "unit": "µg"}, {"measurement": "Accumulative excretion amount", "setting": "oral CNS 110 mg/kg, 96 h", "value": "105.509 ± 30.482", "unit": "µg"}, {"measurement": "Accumulative excretion percentage", "setting": "oral CNS 110 mg/kg, 96 h", "value": "3.441±0.996", "unit": "%"}, {"measurement": "Excretion amount", "setting": "oral CNS 110 mg/kg, 96 h", "value": "0.396 ± 0.402", "unit": "µg"}, {"measurement": "Accumulative excretion amount", "setting": "oral CNS 110 mg/kg, 120 h", "value": "105.509 ± 30.482", "unit": "µg"}, {"measurement": "Accumulative excretion percentage", "setting": "oral CNS 110 mg/kg, 120 h", "value": "3.442±0.994", "unit": "%"}, {"measurement": "Accumulative excretion amount", "setting": "oral NS 60 mg/kg, 4 h", "value": "21.063 ± 5.410", "unit": "µg"}, {"measurement": "Accumulative excretion percentage", "setting": "oral NS 60 mg/kg, 4 h", "value": "0.612±0.145", "unit": "%"}, {"measurement": "Excretion amount", "setting": "oral NS 60 mg/kg, 4 h", "value": "21.063 ± 5.410", "unit": "µg"}, {"measurement": "Accumulative excretion amount", "setting": "oral NS 60 mg/kg, 8 h", "value": "27.855 ± 7.375", "unit": "µg"}, {"measurement": "Accumulative excretion percentage", "setting": "oral NS 60 mg/kg, 8 h", "value": "0.798±0.216", "unit": "%"}, {"measurement": "Excretion amount", "setting": "oral NS 60 mg/kg, 8 h", "value": "6.792 ± 2.122", "unit": "µg"}, {"measurement": "Accumulative excretion percentage", "setting": "oral NS 60 mg/kg, 12 h", "value": "1.244±0.343", "unit": "%"}, {"measurement": "Excretion amount", "setting": "oral NS 60 mg/kg, 12 h", "value": "15.587 ± 4.879", "unit": "µg"}, {"measurement": "Accumulative excretion amount", "setting": "oral NS 60 mg/kg, 24 h", "value": "72.682 ± 20.662", "unit": "µg"}, {"measurement": "Accumulative excretion percentage", "setting": "oral NS 60 mg/kg, 24 h", "value": "2.071±0.592", "unit": "%"}, {"measurement": "Excretion amount", "setting": "oral NS 60 mg/kg, 24 h", "value": "29.239 ± 8.754", "unit": "µg"}, {"measurement": "Accumulative excretion amount", "setting": "oral NS 60 mg/kg, 36 h", "value": "101.659 ± 29.524", "unit": "µg"}, {"measurement": "Accumulative excretion percentage", "setting": "oral NS 60 mg/kg, 36 h", "value": "2.904±0.845", "unit": "%"}, {"measurement": "Excretion amount", "setting": "oral NS 60 mg/kg, 36 h", "value": "28.977 ± 8.942", "unit": "µg"}, {"measurement": "Accumulative excretion amount", "setting": "oral NS 60 mg/kg, 48 h", "value": "131.700 ± 39.092", "unit": "µg"}, {"measurement": "Accumulative excretion percentage", "setting": "oral NS 60 mg/kg, 48 h", "value": "3.751±1.111", "unit": "%"}, {"measurement": "Excretion amount", "setting": "oral NS 60 mg/kg, 48 h", "value": "30.041 ± 9.594", "unit": "µg"}, {"measurement": "Accumulative excretion amount", "setting": "oral NS 60 mg/kg, 72 h", "value": "133.372 ± 39.629", "unit": "µg"}, {"measurement": "Accumulative excretion percentage", "setting": "oral NS 60 mg/kg, 72 h", "value": "3.801±1.132", "unit": "%"}, {"measurement": "Excretion amount", "setting": "oral NS 60 mg/kg, 72 h", "value": "1.673 ± 0.554", "unit": "µg"}, {"measurement": "Accumulative excretion percentage", "setting": "oral NS 60 mg/kg, 96 h", "value": "3.814±1.133", "unit": "%"}, {"measurement": "Excretion amount", "setting": "oral NS 60 mg/kg, 96 h", "value": "0.327 ± 0.104", "unit": "µg"}, {"measurement": "Accumulative excretion percentage", "setting": "oral NS 60 mg/kg, 120 h", "value": "3.824±1.132", "unit": "%"}, {"measurement": "Excretion amount", "setting": "oral NS 60 mg/kg, 120 h", "value": "0.315 ± 0.110", "unit": "µg"}]}]}
